Assays:
Assay type in all cases: biochemical
[1] = biological target: T1, HSepi (heparan sulfate glucuronyl C5-epimerase) (Homo sapiens, UniProt O94923); assay: epimerase activity assay (3H release from [[…]-3H]-N-sulfated K5 polysaccharide) with recombinant enzyme
T1 construct: gene GLCE; full-length, myc-HIS fusion
T1 sequence (O94923 1-617): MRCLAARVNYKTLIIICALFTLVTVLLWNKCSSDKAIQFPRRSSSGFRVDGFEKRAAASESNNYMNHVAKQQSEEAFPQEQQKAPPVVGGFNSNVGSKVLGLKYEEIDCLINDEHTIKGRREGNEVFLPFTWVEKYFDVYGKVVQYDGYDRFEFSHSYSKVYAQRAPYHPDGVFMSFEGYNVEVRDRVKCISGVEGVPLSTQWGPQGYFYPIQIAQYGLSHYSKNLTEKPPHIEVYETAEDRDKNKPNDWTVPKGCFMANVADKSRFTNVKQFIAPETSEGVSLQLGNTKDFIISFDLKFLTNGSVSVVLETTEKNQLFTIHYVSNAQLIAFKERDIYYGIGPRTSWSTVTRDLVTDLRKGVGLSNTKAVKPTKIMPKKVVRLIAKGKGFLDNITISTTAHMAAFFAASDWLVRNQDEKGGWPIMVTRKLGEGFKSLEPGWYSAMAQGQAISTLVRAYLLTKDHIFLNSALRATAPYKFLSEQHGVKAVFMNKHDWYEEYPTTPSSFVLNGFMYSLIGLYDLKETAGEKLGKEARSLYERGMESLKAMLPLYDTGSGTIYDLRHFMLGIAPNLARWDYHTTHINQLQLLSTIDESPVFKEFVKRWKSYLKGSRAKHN

DS-epi1 (DS-epimerase 1) = biological target: T2, DS-epi1 (DS-epimerase 1) (Homo sapiens, UniProt Q9UL01); assay: epimerase activity assay (3H release from [[…]-3H]dK4) with recombinant enzyme; dialysis irreversibility test; Lineweaver-Burk kinetics
T2 construct: gene DSE; truncated form (amino acid 23–775-HIS)

[2] = biological target: T3, D4ST1 (DS 4-O-sulfotransferase 1) (Homo sapiens, UniProt Q8NCH0); assay: sulfotransferase activity assay ([…]PAPS incorporation) with recombinant enzyme
T3 construct: gene CHST14; D4ST1-HIS (amino acid 61–376)
T3 sequence (Q8NCH0 61-376): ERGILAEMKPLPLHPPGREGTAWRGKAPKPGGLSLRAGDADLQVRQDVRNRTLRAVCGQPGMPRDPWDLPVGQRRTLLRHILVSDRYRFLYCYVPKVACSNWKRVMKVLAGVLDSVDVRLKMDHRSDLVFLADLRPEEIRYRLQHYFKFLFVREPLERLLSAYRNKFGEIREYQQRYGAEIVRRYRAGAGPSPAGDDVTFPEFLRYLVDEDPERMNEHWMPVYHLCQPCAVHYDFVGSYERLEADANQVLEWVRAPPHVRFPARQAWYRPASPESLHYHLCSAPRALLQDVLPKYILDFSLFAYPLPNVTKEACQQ

## O=c1c2ccccc2[se]n1-c1ccccc1 [ebselen, 2-phenyl-1,2-benzoisoselenazol-3(2H)-one]
[1]
  IC50: 800 nM
DS-epi1 (DS-epimerase 1)
  IC50: 7000 nM
[2]
  IC50: 1500 nM

From publication PMC8600295, “Inhibition of iduronic acid biosynthesis by ebselen reduces glycosaminoglycan accumulation in mucopolysaccharidosis type I fibroblasts” (Glycobiology, 2021)
